Columns and labels:
Assay type in all cases: in vivo
Weissen Leghorn-Küken [1] = assay: Intestinal calcium absorption in chicks (serum 45Ca); settings: for Serum ^45Ca: serum 45 min after isotope
Excerpt: b) Intestinale Calcium-Absorption bei Küken
Weissen Leghorn-Küken wird während 21 Tagen unter UV-freier Bestrahlung eine Vitamin D-arme Diät gegeben. Eine Einzeldosis der Testverbindung, gelöst in Propylenglykol, wird den Tieren oral verabreicht. Danach werden zu verschiedenen Zeitpunkten 2 µCi ^45 Ca (Chlorid) oral verabreicht und die Serumradioaktivität 45 Minuten nach Verabreichung des Isotops gemessen. In jeder Versuchsperiode werden Kontrolltiere verwendet, denen nur das Vehikel verabreicht wird. In jeder Behandlungsgruppe und jeder Kontrollgruppe werden 10 oder 11 Küken verwendet.

[2] = system: Männliche Charles River Ratten; assay: Prevention of EHDP-induced mineralisation block in rats (epiphyseal plate width); settings: for Mittlere Breite der Epiphysenplatte: 10 days with EHDP 2 mg/Ratte s.c., EHDP alone 1182 ± 51, no EHDP 440 ± 2
Experimental: c) Verhütung der durch EHDP-induzierten Blockierung der Mineralisierung bei Ratten
Männliche Charles River Ratten werden 10 Tage mit Dinatrium-äthan-1-hydroxy-1,1-diphosphonat (EHDP) behandelt. Die Verbindung wird in destilliertem Wasser in einer Konzentration von 2 mg/0,2 ml/Ratte jeden Tag subcutan verabreicht. Die fluorierte Verbindung wird in Propylenglykol jeden Tag oral verabreicht. Am Tag nach der letzten Behandlung werden die Ratten seziert und deren Tibia durch Silberimprägnierung der Knochensalze behandelt. Die Breite der Epiphysenplatte wird mit einem Mikroskop gemessen. Zur Ermittlung der Aktivität wird die dosisabhängige Verengerung der durch EHDP-Induktion erweiterten Epiphysenplatte gemessen. In jeder Behandlungsgruppe werden 10 Ratten verwendet. Es werden auch positive (EHDP allein) und negative (Vehikel allein) Kontrollgruppen von 10 Ratten in jedem Versuch verwendet.

Weissen Leghorn-Küken [3] = assay: Antirachitic activity in chicks (tibia ash weight); settings: for Mittleres Tibiaaschengewicht: 21 days, vitamin D-deficient diet, vehicle control 120,7 ± 5,9
Excerpt: a) Antirachitische Aktivität
Weissen Leghorn-Küken wird unter UV-freier Beleuchtung eine Vitamin D-arme, 1% Calcium und 0,7% Phosphor enthaltende Diät gegeben. Die in Propylenglykol gelöste Testverbindung wird während 21 Tagen den am Anfang des Versuchs 1 oder 2 Tage alten Küken oral verabreicht. Kontrolltiere werden mit dem Vehikel behandelt. Die Küken werden am Tag nach dem letzten Behandlungstag seziert und das Tibiaaschengewicht wird ermittelt. Es werden 9 oder 10 Küken für jede Behandlungsgruppe und für die Kontrollgruppe verwendet. Die mittleren Tibiaaschengewichte ausgedrückt in mg sind in der nachfolgenden Tabelle I angegeben.

[4] = 100 ng single oral dose, 24 Std., vehicle 992 ± 81
[5] = 100 ng single oral dose, 48 Std., vehicle 769 ± 90

SMILES | Serum ^45Ca (Weissen Leghorn-Küken [1]; [4]) | Serum ^45Ca (Weissen Leghorn-Küken [1]; [5]) | Serum ^45Ca (Weissen Leghorn-Küken [1]; 200 ng single oral dose, 72 Std., vehicle 647 ± 69) | Mittlere Breite der Epiphysenplatte ([2]; 1 ng/Ratte/Tag oral) | Mittlere Breite der Epiphysenplatte ([2]; 3 ng/Ratte/Tag oral) | Mittlere Breite der Epiphysenplatte ([2]; 10 ng/Ratte/Tag oral) | Mittlere Breite der Epiphysenplatte ([2]; 30 ng/Ratte/Tag oral) | Calcifizierung der Tibiaepiphysenplatte ([2]; EHDP-blocked rats, summary in words of Tabelle III) | Serum ^45Ca (Weissen Leghorn-Küken [1]; 100 ng single oral dose, 72 Std., vehicle 647 ± 69) | Serum ^45Ca (Weissen Leghorn-Küken [1]; 100 ng single oral dose, 96 Std., vehicle 586 ± 70) | lang andauernde intestinale Calcium-Absorption (Weissen Leghorn-Küken [1]; duration after 100 ng Einzeldosis, oral) | Mittleres Tibiaaschengewicht (Weissen Leghorn-Küken [3]; 1 ng/Küken/Tag oral) | Mittleres Tibiaaschengewicht (Weissen Leghorn-Küken [3]; 3 ng/Küken/Tag oral) | Mittleres Tibiaaschengewicht (Weissen Leghorn-Küken [3]; 10 ng/Küken/Tag oral) | Mittleres Tibiaaschengewicht (Weissen Leghorn-Küken [3]; 30 ng/Küken/Tag oral) | antirachitische Aktivität (Weissen Leghorn-Küken [3]; summary in words of Tabelle I)
C=C1/C(=C\C=C2/CCC[C@]3(C)[C@@H]([C@H](C)CCCC(C)(C)O)CC[C@@H]23)C[C@@H](O)C[C@@H]1O [Verbindung A, 1a,25-Dihydroxycholecalciferol, reference compound] | 1800 ± 181 cpm/0,2 ml | 1006 ± 133 cpm/0,2 ml | 710 ± 62 cpm/0,2 ml |  |  |  |  |  |  |  |  |  |  |  |  | 
C=C1/C(=C\C=C2/CCC[C@]3(C)[C@@H]([C@H](C)CCC(F)(F)C(C)(C)O)CC[C@@H]23)C[C@@H](O)C[C@@H]1O [fluorierte Verbindung, 24,24-Difluor-la,25-dihydroxycholecalciferol] | 2064 ± 170 cpm/0,2 ml | 1539 ± 99 cpm/0,2 ml |  | 839 ± 18 Mikron | 674 ± 18 Mikron | 540 ± 16 Mikron | 412 ± 9 Mikron | die Calcifizierung der Tibiaepiphysenplatte bei EHDP-blockierten Ratten bewirkt | 1164 ± 90 cpm/0,2 ml | 998 ± 61 cpm/0,2 ml | 96 Stunden | 111,5 ± 4,7 mg | 151,1 ± 8,2 mg | 227,1 ± 8,2 mg | 244,8 ± 7,4 mg | beträchtliche antirachitische Aktivität

Reference: patent publication EP0094644A1, “Utilization of a cholecalciferol derivative” (F. HOFFMANN-LA ROCHE & CO. Aktiengesellschaft, priority 1982, dated 1983)
